According to the NIST ThermoML archive (doi:10.1016/j.jct.2011.10.001):

Experiment: molar heat capacity at constant pressure
Settings: 101.33 kPa, Crystal, Vacuum adiabatic calorimetry

CCCC(=O)OC [methyl butanoate]
Settings	molar heat capacity at constant pressure [J/K/mol]
5 K	0.356
7.61 K	1.24
7.88 K	1.381
8.13 K	1.514
8.39 K	1.657
8.65 K	1.805
8.9 K	2.108
9.16 K	2.207
9.41 K	2.466
9.66 K	2.549
9.91 K	2.719
10 K	2.828
10.22 K	2.894
10.6 K	3.3
10.98 K	3.648
11.35 K	4.064
11.73 K	4.38
12.13 K	4.735
12.5 K	5.111
12.86 K	5.563
13.23 K	5.907
13.6 K	6.278
13.96 K	6.646
14.33 K	7.063
14.68 K	7.551
15 K	7.893
15.04 K	7.92
15.4 K	8.318
15.76 K	8.825
16.11 K	9.332
16.47 K	9.652
16.82 K	10.21
17.17 K	10.66
17.53 K	11.07
17.88 K	11.41
18.23 K	11.84
18.58 K	12.53
18.93 K	12.9
19.28 K	13.53
19.63 K	13.98
19.98 K	14.42
20 K	14.36
20.62 K	15.2
21.39 K	16.16
22.15 K	17.23
22.91 K	18.29
23.67 K	19.35
24.44 K	20.59
25 K	21.25
25.2 K	21.61
25.97 K	22.55
26.73 K	23.64
27.49 K	24.49
28.25 K	25.82
29.01 K	26.93
29.77 K	27.91
30 K	28.14
30.53 K	29.04
31.29 K	29.6
32.82 K	31.82
33.59 K	32.79
34.35 K	33.88
35 K	34.59
35.11 K	34.58
35.86 K	35.63
36.61 K	36.63
37.37 K	37.49
38.12 K	38.33
38.88 K	38.88
39.63 K	39.87
40 K	40.28
40.39 K	40.69
41.14 K	41.43
41.9 K	42.12
42.65 K	43.21
43.4 K	44
44.16 K	44.51
44.91 K	45.66
45 K	45.57
45.66 K	46.29
46.41 K	47.13
47.17 K	47.63
47.92 K	48.66
48.66 K	49.52
49.41 K	50.2
50 K	50.77
50.16 K	50.98
50.91 K	51.69
51.66 K	52.27
52.4 K	53.16
53.15 K	54.06
53.89 K	54.63
54.64 K	55.7
55 K	55.94
55.38 K	56.48
56.12 K	57.16
56.87 K	57.9
59.09 K	60.08
59.84 K	60.45
60 K	60.87
60.58 K	61.42
61.32 K	62.07
62.06 K	62.68
62.8 K	63.44
63.54 K	64.04
64.28 K	64.72
65 K	65.14
65.03 K	65.05
65.77 K	65.7
66.5 K	66.39
67.24 K	66.79
67.98 K	67.34
68.72 K	67.73
69.46 K	68.24
70 K	68.48
70.2 K	68.47
71.09 K	68.75
72.14 K	69.62
73.19 K	70.47
74.24 K	70.88
75 K	71.36
75.29 K	71.51
76.34 K	72.3
77.39 K	72.87
78.44 K	73.35
78.68 K	72.62
79.48 K	74.12
79.71 K	73.82
80 K	74.1
80.53 K	74.83
80.74 K	74.41
81.58 K	75.43
81.76 K	74.8
82.62 K	75.67
82.79 K	75.48
83.67 K	76.36
83.81 K	75.48
84.83 K	76.86
85 K	76.9
85.85 K	77.51
86.87 K	77.78
87.89 K	78.68
88.91 K	79.57
89.93 K	79.99
90 K	79.81
90.96 K	80.42
91.97 K	80.85
92.99 K	81.43
94.01 K	82.02
95 K	82.75
95.03 K	82.39
96.04 K	83.43
97.06 K	84.19
98.07 K	84.16
99.09 K	84.89
100 K	85.29
100.1 K	85.45
101.62 K	86.18
103.64 K	87.3
105.66 K	88.28
107.68 K	89.36
109.7 K	90.17
110 K	90.46
111.72 K	91.08
113.73 K	92.15
115.74 K	93.34
117.75 K	94.24
119.76 K	95.16
120 K	95.31
121.76 K	96.24
123.77 K	97.13
125.78 K	98.02
127.78 K	98.84
129.79 K	99.75
